Measured values as given in patent publication US5089494A, “4-phenylphthalazine derivatives which inhibit platelet aggregation” (Mitsubishi Kasei Corporation, priority 1990, dated 1992).

Experiments:
[1] = system: platelet aggregation; experiment: Platelet aggregation-inhibitory activity in vitro (collagen-induced, rat platelet rich plasma); format: cell-based; details: for inhibition at 1 µM / inhibition at 0.1 µM / inhibition at 0.3 µM: read-out: in vitro Inhibitory ratio; for inhibition at 0.3 µM: 3 × 10^-7 M
Procedure: Platelet aggregation-inhibitory activity in vitro
Rat arterial blood was centrifuged to obtain platelet rich plasma.
Platelet aggregation inhibitory ratio was calculated by the following formula: [formula] Tc: Aggregation degree where only a solvent was added. Ts: Aggregation degree where a solution of the test compound was added.

[2] = system: platelet aggregation; experiment: Platelet aggregation inhibitory activity ex vivo (by oral administration); format: in vivo, male Wistar ST rats; details: 1 hour, collagen 7 to 10 μg/ml, rat
Procedure: Platelet aggregation inhibitory activity ex vivo (by oral administration)
A group of 8 male Wistar ST rats each weighing about 250 grams were used. To the test animal was orally administered 4 ml/kg of a solution made by suspending a test compound in 1% aqueous tragacanth solution, and one hour later blood was collected from common carotid artery with a cannula. […] The residue was further centrifuged by […] for 15 minutes and the supernatant was recovered as poor platelet plasma (PPP). The plasma samples were used for assaying the platelet aggregating ability.
As an aggregation inducer, 7 to 10 μg/ml of collagen (Hormon-Chemie) was used.
Platelet Aggregation-inhibitory ratio was calculated by the following formula: [formula] A: Aggregating ratio of the group (control) in which only 1% aqueous tragacanth solution was administered.
B: Aggregating ratio of the group in which a solution of the test compound in tragacanth solution was administered.

[3] = system: rat left coronary artery ligation-induced cardiac infarction; experiment: Activity to rat left coronary artery ligation-induced cardiac infarction; format: in vivo, male SD rats; details: 60 minutes prior to ligation
From the text: Activity of the compounds (I) to rat left coronary artery ligation-induced cardiac infarction
A group of 8 male SD rats weighing 200 to 250 g were used. The rats were fixed at the dosal position under light ether paralysis, subjected to longitudinal incission in about 1.5 cm along the sternal left line to make thoractonomy under breaking the heart sac and exposing the heart. After ligating the left main coronary artery at 1 to 2 mm from the origin with black blade silk suture (Hama Ika Kogyo, 4-0), the heart was returned at the original position and the breast was closed immediately. The bilateral breast was pressed to exclude the air in the thoracic cavity to resume respiration. […] Twenty-four hours after ligation, the blood was collected from the ventral vena cava, and the rat was killed by complete bleeding. The heart was taken out, and the cross circular slice (about 2 mm) at the central part of the heart was incubated at 37° C. in the dark for 20 minutes in 20 ml of 1% solution of TTC (tryphenyl tetrazolium chloride, Wako Junyaku) in 0.09 M phosphate buffer (pH 8.6). The slice was photographed under a stereoscopic microscope, and the colored slides were prepared therefrom. The slides were projected on the wall, and the sections, the infarction parts (TTC non-dyed part) and non-infarction parts (TTC dyed part), were traced. So, the area of the infarction part in the total section area was calculated. A solution made by suspending the test compound in 1% aqueous tragacanth solution was orally administered 60 minutes prior to the coronary artery ligation. [formula] A: Infarction ratio where only 1% tragacanth solution was administered for control.
B: Infarction ratio where the tragacanth solution containing the test compound was administered.

`c1ccc(CCCNc2nnc(-c3ccccc3)c3ccccc23)cc1` [Control 3, reference compound] gave an inhibition at 1 µM ([1]; 10^-6 M) of 40.7% and an inhibition at 0.1 µM ([1]; 10^-7 M) of 12.6%.

For `CC(Nc1nnc(-c2ccccc2)c2ccccc12)c1ccccc1` (racemic) [1 (DL)], the “ex vivo Inhibitory ratio (p.o.)” value ([2]; 1 mg/kg p.o.) was 76.2%, the “ex vivo Inhibitory ratio (p.o.)” value ([2]; 3 mg/kg p.o.) was 79.8% and the inhibition at 1 µM ([1]; 10^-6 M) was 84%. It also gave an inhibition at 0.1 µM ([1]; 10^-7 M) of 72.2%.

`CC(Nc1nnc(-c2ccccc2)c2ccccc12)c1cccc(C(F)(F)F)c1` (racemic) [92 (DL)] gave an inhibition at 1 µM ([1]; 10^-6 M) of 89.5% and an inhibition at 0.1 µM ([1]; 10^-7 M) of 1.5%.

`Cc1ccc(C(C)Nc2nnc(-c3ccccc3)c3ccccc23)cc1` (racemic) [56 (DL)] was tested, and the inhibition at 0.1 µM ([1]; 10^-7 M) was 92.9%.

Compound `CC(Nc1nnc(-c2ccc(Cl)cc2)c2ccccc12)c1ccccc1` (racemic) [34 (DL)] has an inhibition at 1 µM ([1]; 10^-6 M) of 100%.

`Cc1cccc(C(C)(C)Nc2nnc(-c3ccccc3)c3ccccc23)c1` [compound 167] was tested, and the inhibition at 1 µM ([1]; 10^-6 M) was 100% and the inhibition at 0.1 µM ([1]; 10^-7 M) was 100%.

With `C[C@@H](Nc1nnc(-c2ccccc2)c2ccccc12)c1ccccc1` [1 (D), D-1-α-methylbenzylamino-4-phenylphthalazine] the “Cardiac infarction inhibitory ratio” value ([3]; 2 mg/kg p.o.) was 81.1%, the “Cardiac infarction inhibitory ratio” value ([3]; 10 mg/kg p.o.) was 76.6% and the “ex vivo Inhibitory ratio (p.o.)” value ([2]; 1 mg/kg p.o.) was 65.5%. The “ex vivo Inhibitory ratio (p.o.)” value ([2]; 3 mg/kg p.o.) was 80.2%, the “ex vivo Inhibitory ratio (p.o.)” value ([2]; 10 mg/kg p.o.) was 88.5% and the “in vitro Inhibitory ratio” value ([1]; 10^-6 M, 1 µM) was 100%. For the same compound, the “in vitro Inhibitory ratio” value ([1]; 10^-7 M, 0.1 µM) was 100%.

Compound `CC(Nc1nnc(-c2ccccc2)c2ccccc12)c1ccc2c(c1)OCO2` (racemic) [79 (DL)] has an inhibition at 0.3 µM [1] of 95.3% and an inhibition at 0.1 µM ([1]; 10^-7 M) of 6.3%.

For `CC(Nc1nnc(-c2ccccc2)c2ccccc12)c1ccc(C(F)(F)F)cc1` (racemic) [91 (DL)], the inhibition at 1 µM ([1]; 10^-6 M) was 22.5%.

`CC(C)C(Nc1nnc(-c2ccccc2)c2ccccc12)c1ccccc1` (racemic) [4 (DL)] showed an inhibition at 1 µM ([1]; 10^-6 M) of 96.6% and an inhibition at 0.1 µM ([1]; 10^-7 M) of 49.3%.

With `CC(=O)Oc1ccccc1C(=O)O` [Aspirin, reference compound] the “Cardiac infarction inhibitory ratio” value ([3]; 100 mg/kg p.o.) was 10.7%.

`CC(Nc1nnc(-c2ccccc2)c2ccccc12)c1ccc(F)cc1` (racemic) [85 (DL)] showed an inhibition at 0.3 µM [1] of 94.1% and an inhibition at 0.1 µM ([1]; 10^-7 M) of 10.2%.

Work on `CC(Cc1ccccc1)Nc1nnc(-c2ccccc2)c2ccccc12` (centres unmarked) [Control 4, reference compound] yielded an inhibition at 1 µM ([1]; 10^-6 M) of 7.1%.

Work on `Cc1ccc(C(C)(C)Nc2nnc(-c3ccccc3)c3ccccc23)cc1` [compound 166] yielded an inhibition at 1 µM ([1]; 10^-6 M) of 100% and an inhibition at 0.1 µM ([1]; 10^-7 M) of 100%.

`COc1ccccc1C(C)Nc1nnc(-c2ccccc2)c2ccccc12` (racemic) [73 (DL)] was tested, and the inhibition at 0.1 µM ([1]; 10^-7 M) was 93.3%.

For `COc1ccc(C(C)Nc2nnc(-c3ccccc3)c3ccccc23)cc1` (racemic) [69 (DL)], the inhibition at 0.3 µM [1] was 74.7% and the inhibition at 0.1 µM ([1]; 10^-7 M) was 21%.

`COc1cccc(C(C)Nc2nnc(-c3ccccc3)c3ccccc23)c1` (racemic) [72 (DL)] gave an inhibition at 1 µM ([1]; 10^-6 M) of 94.8% and an inhibition at 0.1 µM ([1]; 10^-7 M) of 14.9%.

Compound `Cc1ccccc1C(C)Nc1nnc(-c2ccccc2)c2ccccc12` (racemic) [58 (DL)] has an inhibition at 0.1 µM ([1]; 10^-7 M) of 89.9%.

In the case of `Clc1ccccc1CN1CCc2sccc2C1` [Ticlopidine, reference compound], the “Cardiac infarction inhibitory ratio” value ([3]; 30 mg/kg p.o.) was 10.1%.

Compound `CC(Nc1nnc(-c2ccccc2)c2ccccc12)c1ccccc1F` (racemic) [87 (DL)] has an inhibition at 1 µM ([1]; 10^-6 M) of 52.4%.

`CC(Nc1nnc(-c2ccccc2)c2ccccc12)c1ccc(Cl)cc1` (racemic) [80 (DL)] showed an inhibition at 0.3 µM [1] of 93.3% and an inhibition at 0.1 µM ([1]; 10^-7 M) of 26.3%.

For `CCC(Nc1nnc(-c2ccccc2)c2ccccc12)c1ccccc1` (racemic) [2 (DL)], the “ex vivo Inhibitory ratio (p.o.)” value ([2]; 1 mg/kg p.o.) was 37.8%, the “ex vivo Inhibitory ratio (p.o.)” value ([2]; 3 mg/kg p.o.) was 52.3% and the “ex vivo Inhibitory ratio (p.o.)” value ([2]; 10 mg/kg p.o.) was 94.5%. It also gave an inhibition at 1 µM ([1]; 10^-6 M) of 96.4% and an inhibition at 0.1 µM ([1]; 10^-7 M) of 100%.

For `CC(Nc1nnc(-c2ccccc2)c2ccccc12)c1cccc(Cl)c1` (racemic) [81 (DL)], the “ex vivo Inhibitory ratio (p.o.)” value ([2]; 10 mg/kg p.o.) was 72.5%, the inhibition at 1 µM ([1]; 10^-6 M) was 98.3% and the inhibition at 0.1 µM ([1]; 10^-7 M) was 40.7%.

`CCCCC(Nc1nnc(-c2ccccc2)c2ccccc12)c1ccccc1` (racemic) [5 (DL)] gave an inhibition at 1 µM ([1]; 10^-6 M) of 98.4% and an inhibition at 0.1 µM ([1]; 10^-7 M) of 20.6%.

For `CC(C)(Nc1nnc(-c2ccccc2)c2ccccc12)c1ccccc1` [Compound No. 119, 1-α,α-dimethylbenzylamino-4-phenylphthalazine], the inhibition at 0.1 µM ([1]; 10^-7 M) was 93%.

With `CC(Nc1nnc(-c2ccccc2)c2ccccc12)c1ccccc1Cl` (racemic) [82 (DL)] the inhibition at 0.3 µM [1] was 58.5% and the inhibition at 1 µM ([1]; 10^-6 M) was 65.5%.

Compound `CCc1ccc(C(C)Nc2nnc(-c3ccccc3)c3ccccc23)cc1` (racemic) [59 (DL)] has an inhibition at 0.1 µM ([1]; 10^-7 M) of 56.5%.

With `CCCC(Nc1nnc(-c2ccccc2)c2ccccc12)c1ccccc1` (racemic) [3 (DL)] the inhibition at 0.3 µM [1] was 96.8% and the inhibition at 0.1 µM ([1]; 10^-7 M) was 65.9%.

`c1ccc(-c2nnc(NC3(c4ccccc4)CCCCC3)c3ccccc23)cc1` [compound 136] showed an inhibition at 0.1 µM ([1]; 10^-7 M) of 94.7%.

With `CC(Nc1nnc(-c2ccccc2)c2ccccc12)c1cccc(F)c1` (racemic) [86 (DL)] the “ex vivo Inhibitory ratio (p.o.)” value ([2]; 1 mg/kg p.o.) was 40.5% and the inhibition at 1 µM ([1]; 10^-6 M) was 100%.

Work on `COc1ccc(C(C)Nc2nnc(-c3ccccc3)c3ccccc23)cc1OC` (racemic) [78 (DL)] yielded an inhibition at 0.3 µM [1] of 93.6% and an inhibition at 0.1 µM ([1]; 10^-7 M) of 6.2%.

With `CC(C)(C)C(Nc1nnc(-c2ccccc2)c2ccccc12)c1ccccc1` (racemic) [8 (DL)] the “ex vivo Inhibitory ratio (p.o.)” value ([2]; 1 mg/kg p.o.) was 22.0%, the “ex vivo Inhibitory ratio (p.o.)” value ([2]; 3 mg/kg p.o.) was 35.1% and the “ex vivo Inhibitory ratio (p.o.)” value ([2]; 10 mg/kg p.o.) was 69.9%. For the same compound, the inhibition at 1 µM ([1]; 10^-6 M) was 100% and the inhibition at 0.1 µM ([1]; 10^-7 M) was 100%.

`Cc1cccc(C(C)Nc2nnc(-c3ccccc3)c3ccccc23)c1` (racemic) [57 (DL)] was tested, and the “ex vivo Inhibitory ratio (p.o.)” value ([2]; 1 mg/kg p.o.) was 61.8% and the inhibition at 0.1 µM ([1]; 10^-7 M) was 90.3%.
